From US10005767B2, “Compositions and methods for inhibition of the JAK pathway” (Rigel Pharmaceuticals, Inc., priority 2009, dated 2018)

What follows are compounds tested on human primary T-cells, IL-2 stimulated proliferation (JAK-1 and JAK-3 dependent; reported as JAK3 activity) (assay: Human primary T-cell proliferation stimulated by IL-2 (Example 3)). Conditions: Homo sapiens, T-cell, tested under conditions described in Example 3 (IL-2 stimulated human primary T-cell proliferation); read-out: ability to inhibit JAK3 activity, IC50 range (Table V).
Format: cell-based
Method in brief: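 Peripheral-blood human T-cells pre-activated via TCR/CD28, IL-2-starved overnight, then cultured 72 h at 37 °C with compound in Yssel's medium containing IL-2 (80 U/mL in cell suspension). Proliferation read as viable-cell ATP by CellTiter-Glo luminescence; reduction versus control taken as JAK pathway inhibition.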

SMILES | IC50
Cc1cnc(Nc2cccc(S(C)(=O)=O)c2)nc1Nc1cc(F)c2oc(=O)[nH]c2c1 [Compound I-249, 7-fluoro-5-(5-methyl-2-(3-(methylsulfonyl)phenylamino)pyrimidin-4-ylamino)benzo[d]oxazol-2(3H)-one] | < 500 nM
Cc1cnc(Nc2ccc(F)c(S(C)(=O)=O)c2)nc1Nc1cc(F)c2oc(=O)[nH]c2c1 [Compound I-250, 7-fluoro-5-(2-(4-fluoro-3-(methylsulfonyl)phenylamino)-5-methylpyrimidin-4-ylamino)benzo[d]oxazol-2(3H)-one] | < 500 nM
COc1cc(Nc2ncc(C)c(Nc3cc(F)c4oc(=O)[nH]c4c3)n2)cc(C(F)(F)F)c1 [Compound I-251, 7-fluoro-5-(2-(3-methoxy-5-(trifluoromethyl)phenylamino)-5-methylpyrimidin-4-ylamino)benzo[d]oxazol-2(3H)-one] | < 500 nM
COc1cc(Nc2ncc(C)c(Nc3ccc4oc(=O)[nH]c4c3)n2)cc(C(=O)N(C)C)c1 [Compound I-252, 3-methoxy-N,N-dimethyl-5-(5-methyl-4-(2-oxo-2,3-dihydrobenzo[d]oxazol-5-ylamino)pyrimidin-2-ylamino)benzamide] | < 500 nM
COc1cc(Nc2ncc(C)c(Nc3ccc4oc(=O)[nH]c4c3)n2)cc(C(=O)N2CCCC2)c1 [Compound I-253, 5-(2-(3-methoxy-5-(pyrrolidine-1-carbonyl)phenylamino)-5-methylpyrimidin-4-ylamino)benzo[d]oxazol-2(3H)-one] | > 10000 nM
COc1cc(Nc2ncc(C)c(Nc3ccc4oc(=O)[nH]c4c3)n2)cc(C(=O)N2CCOCC2)c1 [Compound I-254, 5-(2-(3-methoxy-5-(morpholine-4-carbonyl)phenylamino)-5-methylpyrimidin-4-ylamino)benzo[d]oxazol-2(3H)-one] | < 500 nM
COc1cc(Nc2ncc(C)c(Nc3ccc4oc(=O)[nH]c4c3)n2)cc(C(=O)N2CCN(C)CC2)c1 [Compound I-255, 5-(2-(3-methoxy-5-(4-methylpiperazine-1-carbonyl)phenylamino)-5-methylpyrimidin-4-ylamino)benzo[d]oxazol-2(3H)-one] | < 500 nM
Cc1cnc(Nc2cccc(C(=O)N3CCOCC3)c2)nc1Nc1ccc2oc(=O)[nH]c2c1 [Compound I-256, 5-(5-methyl-2-(3-(morpholine-4-carbonyl)phenylamino)pyrimidin-4-ylamino)benzo[d]oxazol-2(3H)-one] | < 500 nM
Cc1cnc(Nc2ccc(C(=O)N3CCOCC3)cc2)nc1Nc1ccc2oc(=O)[nH]c2c1 [Compound I-257, 5-(5-methyl-2-(4-(morpholine-4-carbonyl)phenylamino)pyrimidin-4-ylamino)benzo[d]oxazol-2(3H)-one] | < 500 nM
COc1ccc(Nc2ncc(C)c(Nc3ccc4oc(=O)[nH]c4c3)n2)cc1C [Compound I-258, 5-(2-(4-methoxy-3-methylphenylamino)-5-methylpyrimidin-4-ylamino)benzo[d]oxazol-2(3H)-one] | < 500 nM
COc1cc(C)cc(Nc2ncc(C)c(Nc3ccc4oc(=O)[nH]c4c3)n2)c1 [Compound I-259, 5-(2-(3-methoxy-5-methylphenylamino)-5-methylpyrimidin-4-ylamino)benzo[d]oxazol-2(3H)-one] | < 500 nM
COc1ccc(Nc2ncc(C)c(Nc3ccc4oc(=O)[nH]c4c3)n2)cc1C(=O)N(C)C [Compound I-260, 2-methoxy-N,N-dimethyl-5-(5-methyl-4-(2-oxo-2,3-dihydrobenzo[d]oxazol-5-ylamino)pyrimidin-2-ylamino)benzamide] | < 500 nM
COc1ccc(Nc2ncc(C)c(Nc3ccc4oc(=O)[nH]c4c3)n2)cc1C(=O)N1CCCC1 [Compound I-261, 5-(2-(4-methoxy-3-(pyrrolidine-1-carbonyl)phenylamino)-5-methylpyrimidin-4-ylamino)benzo[d]oxazol-2(3H)-one] | < 500 nM
COc1ccc(Nc2ncc(C)c(Nc3ccc4oc(=O)[nH]c4c3)n2)cc1C(=O)N1CCOCC1 [Compound I-262, 5-(2-(4-methoxy-3-(morpholine-4-carbonyl)phenylamino)-5-methylpyrimidin-4-ylamino)benzo[d]oxazol-2(3H)-one] | < 500 nM
COc1ccc(Nc2ncc(C)c(Nc3ccc4oc(=O)[nH]c4c3)n2)cc1C(=O)N1CCN(C)CC1 [Compound I-263, 5-(2-(4-methoxy-3-(4-methylpiperazine-1-carbonyl)phenylamino)-5-methylpyrimidin-4-ylamino)benzo[d]oxazol-2(3H)-one] | < 500 nM
[2H]C([2H])([2H])Oc1ccc(Nc2ncc(C)c(Nc3ccc4oc(=O)[nH]c4c3)n2)cc1C [Compound I-264, 5-(2-(3-methyl-4-trideuteromethoxyphenylamino)-5-methylpyrimidin-4-ylamino)benzo[d]oxazol-2(3H)-one] | < 500 nM
COc1c(C)cc(Nc2ncc(C)c(Nc3ccc4oc(=O)[nH]c4c3)n2)cc1Cl [Compound I-265, 5-(2-(3-chloro-4-methoxy-5-methylphenylamino)-5-methylpyrimidin-4-ylamino)benzo[d]oxazol-2(3H)-one] | < 500 nM
[2H]C([2H])([2H])Oc1cc(C)cc(Nc2ncc(C)c(Nc3ccc4oc(=O)[nH]c4c3)n2)c1 [Compound I-266, 5-(2-(3-methyl-5-trideuteromethoxyphenylamino)-5-methylpyrimidin-4-ylamino)benzo[d]oxazol-2(3H)-one] | < 500 nM
COc1cc(Nc2ncc(C)c(Nc3ccc4oc(=O)[nH]c4c3)n2)ccc1C(=O)N(C)C [Compound I-267, 2-methoxy-N,N-dimethyl-4-(5-methyl-4-(2-oxo-2,3-dihydrobenzo[d]oxazol-5-ylamino)pyrimidin-2-ylamino)benzamide] | < 500 nM
COc1cc(Nc2ncc(C)c(Nc3ccc4oc(=O)[nH]c4c3)n2)ccc1C(=O)N1CCCC1 [Compound I-268, 5-(2-(3-methoxy-4-(pyrrolidine-1-carbonyl)phenylamino)-5-methylpyrimidin-4-ylamino)benzo[d]oxazol-2(3H)-one] | < 500 nM
COc1cc(Nc2ncc(C)c(Nc3ccc4oc(=O)[nH]c4c3)n2)ccc1C(=O)N1CCOCC1 [Compound I-269, 5-(2-(3-methoxy-4-(morpholine-4-carbonyl)phenylamino)-5-methylpyrimidin-4-ylamino)benzo[d]oxazol-2(3H)-one] | < 500 nM
COc1cc(Nc2ncc(C)c(Nc3ccc4oc(=O)[nH]c4c3)n2)ccc1C(=O)N1CCN(C)CC1 [Compound I-270, 5-(2-(3-methoxy-4-(4-methylpiperazine-1-carbonyl)phenylamino)-5-methylpyrimidin-4-ylamino)benzo[d]oxazol-2(3H)-one] | < 500 nM
COc1ccc(Nc2ncc(C)c(Nc3ccc4oc(=O)[nH]c4c3)n2)cc1C(F)F [Compound I-271, 5-(2-(3-(difluoromethyl)-4-methoxyphenylamino)-5-methylpyrimidin-4-ylamino)benzo[d]oxazol-2(3H)-one] | < 500 nM
COc1ccc(Nc2ncc(C)c(Nc3ccc4oc(=O)[nH]c4c3)n2)cc1 [Compound I-272, 5-(2-(4-methoxyphenylamino)-5-methylpyrimidin-4-ylamino)benzo[d]oxazol-2(3H)-one] | < 500 nM
COc1cc(Nc2ncc(C)c(Nc3ccc4oc(=O)[nH]c4c3)n2)cc(C(F)F)c1 [Compound I-273, 5-(2-(3-(difluoromethyl)-5-methoxyphenylamino)-5-methylpyrimidin-4-ylamino)benzo[d]oxazol-2(3H)-one] | < 500 nM
COc1cc(CF)cc(Nc2ncc(C)c(Nc3ccc4oc(=O)[nH]c4c3)n2)c1 [Compound I-274, 5-(2-(3-(fluoromethyl)-5-methoxyphenylamino)-5-methylpyrimidin-4-ylamino)benzo[d]oxazol-2(3H)-one] | < 500 nM

Same assay, conditions: tested under conditions described in Example 3 (IL-2 stimulated human primary T-cell proliferation); read-out: ability to inhibit JAK3 activity, IC50 range (Table V)

SMILES | IC50
Cc1cnc(Nc2ccc(N3CCC(F)(F)CC3)c(F)c2)nc1Nc1ccc2oc(=O)[nH]c2c1 [Compound I-275, N2-[4-(4,4-difluoropiperidinyl)-3-fluoro]phenyl-5-methyl-N4-(2-oxo-2,3-dihydro-1,3-benzoxazol-5-yl)-2,4-pyrimidinediamine] | < 500 nM
Cc1cnc(Nc2ccc(N3CCC(F)(F)CC3)c(C(F)(F)F)c2)nc1Nc1ccc2oc(=O)[nH]c2c1 [Compound I-276, N2-[4-(4,4-difluoropiperidinyl)-3-trifluoromethyl]phenyl-5-methyl-N4-(2-oxo-2,3-dihydro-1,3-benzoxazol-5-yl)-2,4-pyrimidinediamine] | < 500 nM
Cc1cnc(Nc2ccc(N3CCC(F)(F)CC3)c(Cl)c2)nc1Nc1ccc2oc(=O)[nH]c2c1 [Compound I-277, N2-[3-chloro-4-(4,4-difluoropiperidinyl)]phenyl-5-methyl-N4-(2-oxo-2,3-dihydro-1,3-benzoxazol-5-yl)-2,4-pyrimidinediamine] | < 500 nM
CCN1CCN(c2ccc(Nc3ncc(C)c(Nc4ccc5oc(=O)[nH]c5c4)n3)cc2Cl)CC1 [Compound I-278, N2-[3-chloro-4-(4-ethylpiperazino)]phenyl-5-methyl-N4-(2-oxo-2,3-dihydro-1,3-benzoxazol-5-yl)-2,4-pyrimidinediamine] | < 500 nM
Cc1cnc(Nc2ccc(N3CCC(F)(F)CC3)cc2)nc1Nc1ccc2oc(=O)[nH]c2c1 [Compound I-279, N2-[4-(4,4-difluoropiperidinyl)]phenyl-5-methyl-N4-(2-oxo-2,3-dihydro-1,3-benzoxazol-5-yl)-2,4-pyrimidinediamine] | < 500 nM
COc1cc(Nc2ncc(C)c(Nc3ccc4oc(=O)[nH]c4c3)n2)cc(OC)c1 [Compound I-280, N2-(3,5-dimethoxy)phenyl-5-methyl-N4-(2-oxo-2,3-dihydro-1,3-benzoxazol-5-yl)-2,4-pyrimidinediamine] | < 500 nM
